Test results: US12435046B2, “Alkynyl quinazoline compounds” (Black Diamond Therapeutics, Inc., priority 2019, dated 2025)

Legend:
Type in all cases: cell-based
Conditions in all cases: Table A; BaF3 cells, 3 days
HER2 YVMA = molecular target: T1, HER2 YVMA (Homo sapiens, UniProt P04626, INS775YVMA); test: BaF3 cell proliferation assay (CellTiterGlo), HER2 YVMA
T1 construct: expressed in transfected cells; host or cells: BaF3 (murine pro-B) cells

EGFR V3 = molecular target: T2, EGFR V3 (Homo sapiens, UniProt P00533, DELINS30-297G); test: BaF3 cell proliferation assay (CellTiterGlo), EGFR V3
T2 construct: expressed in transfected cells; host or cells: BaF3 (murine pro-B) cells, retroviral transduction with pMXs-IRES-Blasticidin
Description: (§1) Retroviral Production: EGFR mutants were subcloned into pMXs-IRES-Blasticidin (RTV-016, Cell Biolabs, San Diego, CA). Retroviral expression vector retrovirus was produced by transient transfection of HEK 293T cells with the retroviral EGFR mutant expression vector pMXs-IRES-Blasticidin (RTV-016, Cell Biolabs), pCMV-Gag-Pol vector and pCMV-VSV-G-Envelope vector. Briefly, HEK 293T/17 cells were plated in 100 mm collagen coated plate (354450, Corning Life Sciences, Tewksbury, MA) (4×10^5 per plate) and incubated overnight. The next day, retroviral plasmids (3 ng of EGFR mutant, 1.0 ng of pCMV-Gag-Pol and 0.5 ng pCMV-VSV-G) were mixed in 500 n1 of Optimem (31985, Life Technologies). The mixture was incubated at room temperature for 5 min and then added to Optimem containing transfection reagent Lipofectamine (11668, Invitrogen) and incubated for 20 minutes. Mixture was then added dropwise to HEK 293T cells. The next day the medium was replaced with fresh culture medium and retrovirus was harvested @ 24 and 48 hrs.
(§2) Generation of EGFR mutant stable cell lines: BaF3 cells (1.5E5 cells) were infected with 1 ml of viral supernatant supplemented with 8 ng/ml polybrene by centrifuging for 30 min at 1000 rpm. Cells were placed in a 37° C. incubator overnight. Cells were then spun for 5 minutes to pellet the cells. Supernatant was removed and cells re-infected a fresh 1 ml of viral supernatant supplemented with 8 ng/ml polybrene by centrifuging for 30 min at 1000 rpm. Cells were placed in 37° C. incubator overnight. Cells were then maintained in RPMI containing 10% Heat Inactivated FBS, 2% L-glutamine containing 10 ng/ml IL-3. After 48 hours cells were selected for retroviral infection in 10 […] for one week. Blasticidin resistant populations were washed twice in phosphate buffered saline before plating in media lacking IL-3 to select for IL-3 independent growth.
(§3) Assay for cell proliferation: BaF3 cell lines were resuspended at 1.3E5 c/ml in RPMI containing 10% Heat Inactivated FBS, 2% L-glutamine and 1% Pen/Strep and dispensed in triplicate (17.5E4 c/well) into 96 well plates. To determine the effect of drug on cell proliferation, cells incubated for 3 days in the presence of vehicle control or test drug at varying concentrations. Inhibition of cell growth was determined by luminescent quantification of intracellular ATP content using CellTiterGlo (Promega), according to the protocol provided by the manufacturer. Comparison of cell number on day 0 versus 72 hours post drug treatment was used to plot dose-response curves. The number of viable cells was determined and normalized to vehicle-treated controls. Inhibition of proliferation, relative to vehicle-treated controls was expressed as a fraction of 1 and graphed using PRISM® software (Graphpad Software, San Diego, CA). EC50 values were determined with the same application.

EGFR wt = molecular target: T3, EGFR wt (Homo sapiens, UniProt P00533); test: BaF3 cell proliferation assay (CellTiterGlo), EGFR wt
T3 construct: expressed in transfected cells; host or cells: BaF3 (murine pro-B) cells, retroviral transduction with pMXs-IRES-Blasticidin
Description: as §1, §2, §3

HER2 S310F = molecular target: T4, HER2 S310F (Homo sapiens, UniProt P04626, S310F); test: BaF3 cell proliferation assay (CellTiterGlo), HER2 S310F
T4 construct: expressed in transfected cells; host or cells: BaF3 (murine pro-B) cells
T4 sequence (P04626 23-1255 S310F): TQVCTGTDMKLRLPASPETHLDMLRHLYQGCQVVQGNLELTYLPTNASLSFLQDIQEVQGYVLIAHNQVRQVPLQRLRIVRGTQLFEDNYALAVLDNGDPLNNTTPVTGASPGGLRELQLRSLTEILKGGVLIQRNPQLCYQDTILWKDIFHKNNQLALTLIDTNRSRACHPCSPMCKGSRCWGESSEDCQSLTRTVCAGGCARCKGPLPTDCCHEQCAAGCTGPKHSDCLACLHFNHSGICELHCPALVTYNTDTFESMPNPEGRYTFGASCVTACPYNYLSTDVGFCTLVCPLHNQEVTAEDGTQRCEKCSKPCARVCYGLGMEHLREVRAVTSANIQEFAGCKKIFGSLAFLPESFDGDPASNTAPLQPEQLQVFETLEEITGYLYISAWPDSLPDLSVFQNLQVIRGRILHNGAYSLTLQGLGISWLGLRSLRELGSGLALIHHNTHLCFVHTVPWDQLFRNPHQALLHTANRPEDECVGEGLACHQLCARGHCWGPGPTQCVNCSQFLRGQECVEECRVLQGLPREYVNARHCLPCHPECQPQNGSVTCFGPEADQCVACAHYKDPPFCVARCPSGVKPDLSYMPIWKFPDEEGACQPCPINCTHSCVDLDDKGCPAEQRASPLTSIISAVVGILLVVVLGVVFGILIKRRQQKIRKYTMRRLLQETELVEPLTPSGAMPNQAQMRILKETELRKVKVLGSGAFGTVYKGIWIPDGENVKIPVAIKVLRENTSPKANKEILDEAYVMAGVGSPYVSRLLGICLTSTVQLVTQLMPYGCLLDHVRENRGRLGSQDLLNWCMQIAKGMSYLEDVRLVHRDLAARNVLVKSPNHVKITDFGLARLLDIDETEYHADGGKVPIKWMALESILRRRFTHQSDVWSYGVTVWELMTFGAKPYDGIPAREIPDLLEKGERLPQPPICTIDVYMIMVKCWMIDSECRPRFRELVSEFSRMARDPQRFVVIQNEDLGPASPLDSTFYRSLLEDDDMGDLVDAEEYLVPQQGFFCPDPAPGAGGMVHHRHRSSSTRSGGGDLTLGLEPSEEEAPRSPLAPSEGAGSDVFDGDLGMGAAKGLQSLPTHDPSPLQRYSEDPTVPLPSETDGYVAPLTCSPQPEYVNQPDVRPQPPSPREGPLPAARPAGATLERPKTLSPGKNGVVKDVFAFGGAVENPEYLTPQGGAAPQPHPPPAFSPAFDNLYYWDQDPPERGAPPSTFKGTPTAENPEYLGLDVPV

T3 sequence (P00533 25-1210): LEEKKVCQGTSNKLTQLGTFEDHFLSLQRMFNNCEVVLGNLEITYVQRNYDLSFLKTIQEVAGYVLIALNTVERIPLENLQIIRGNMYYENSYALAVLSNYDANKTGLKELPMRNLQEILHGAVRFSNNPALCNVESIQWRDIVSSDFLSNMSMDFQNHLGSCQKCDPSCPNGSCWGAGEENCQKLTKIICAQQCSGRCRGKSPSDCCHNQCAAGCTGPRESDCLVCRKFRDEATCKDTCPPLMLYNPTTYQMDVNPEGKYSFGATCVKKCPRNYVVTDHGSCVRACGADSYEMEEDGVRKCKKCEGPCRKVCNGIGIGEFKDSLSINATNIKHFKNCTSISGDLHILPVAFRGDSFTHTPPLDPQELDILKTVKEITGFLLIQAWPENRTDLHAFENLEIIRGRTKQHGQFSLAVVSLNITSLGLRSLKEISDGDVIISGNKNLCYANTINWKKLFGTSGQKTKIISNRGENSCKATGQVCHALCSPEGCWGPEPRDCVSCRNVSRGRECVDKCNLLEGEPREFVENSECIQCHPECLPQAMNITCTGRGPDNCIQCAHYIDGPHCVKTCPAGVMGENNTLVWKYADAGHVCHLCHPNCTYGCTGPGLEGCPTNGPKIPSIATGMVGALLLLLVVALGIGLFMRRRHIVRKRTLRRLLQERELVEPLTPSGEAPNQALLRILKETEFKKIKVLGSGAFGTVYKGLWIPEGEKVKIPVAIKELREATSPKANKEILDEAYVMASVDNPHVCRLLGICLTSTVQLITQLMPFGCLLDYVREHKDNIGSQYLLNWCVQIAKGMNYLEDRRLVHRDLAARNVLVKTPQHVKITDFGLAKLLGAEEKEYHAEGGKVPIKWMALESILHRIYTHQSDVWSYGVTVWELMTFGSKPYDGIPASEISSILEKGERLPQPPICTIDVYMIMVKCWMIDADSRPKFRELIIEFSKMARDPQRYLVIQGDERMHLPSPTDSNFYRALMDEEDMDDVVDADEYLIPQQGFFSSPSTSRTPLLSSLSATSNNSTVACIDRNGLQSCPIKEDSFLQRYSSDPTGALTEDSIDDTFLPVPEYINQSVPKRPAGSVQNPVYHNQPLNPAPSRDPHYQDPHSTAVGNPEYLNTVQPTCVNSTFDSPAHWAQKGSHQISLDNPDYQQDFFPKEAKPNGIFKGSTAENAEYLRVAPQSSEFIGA
T2 sequence (P00533 with tags, fused parts or gaps DELINS30-297G): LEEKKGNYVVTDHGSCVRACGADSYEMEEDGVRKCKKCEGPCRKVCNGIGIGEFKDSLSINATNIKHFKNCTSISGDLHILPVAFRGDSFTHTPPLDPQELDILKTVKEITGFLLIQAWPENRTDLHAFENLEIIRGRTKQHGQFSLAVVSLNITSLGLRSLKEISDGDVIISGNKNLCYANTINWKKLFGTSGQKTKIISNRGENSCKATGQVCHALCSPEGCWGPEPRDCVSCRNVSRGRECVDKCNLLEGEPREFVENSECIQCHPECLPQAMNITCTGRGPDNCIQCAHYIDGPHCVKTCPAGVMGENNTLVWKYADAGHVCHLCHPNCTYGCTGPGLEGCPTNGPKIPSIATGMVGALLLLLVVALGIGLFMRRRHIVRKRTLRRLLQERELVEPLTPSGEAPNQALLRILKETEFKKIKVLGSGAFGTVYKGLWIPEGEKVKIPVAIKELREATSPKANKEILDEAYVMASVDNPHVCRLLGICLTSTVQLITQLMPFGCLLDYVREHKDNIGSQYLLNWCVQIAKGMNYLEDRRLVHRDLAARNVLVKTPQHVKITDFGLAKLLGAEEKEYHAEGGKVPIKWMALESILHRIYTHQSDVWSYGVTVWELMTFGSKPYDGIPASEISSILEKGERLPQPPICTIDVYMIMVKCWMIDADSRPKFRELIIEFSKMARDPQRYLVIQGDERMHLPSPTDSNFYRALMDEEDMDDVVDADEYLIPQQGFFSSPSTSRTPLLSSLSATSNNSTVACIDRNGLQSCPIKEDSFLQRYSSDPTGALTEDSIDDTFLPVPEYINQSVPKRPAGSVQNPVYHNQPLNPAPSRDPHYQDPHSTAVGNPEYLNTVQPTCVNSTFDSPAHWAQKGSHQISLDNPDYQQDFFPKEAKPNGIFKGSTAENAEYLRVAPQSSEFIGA
T1 sequence (P04626 with tags, fused parts or gaps INS775YVMA): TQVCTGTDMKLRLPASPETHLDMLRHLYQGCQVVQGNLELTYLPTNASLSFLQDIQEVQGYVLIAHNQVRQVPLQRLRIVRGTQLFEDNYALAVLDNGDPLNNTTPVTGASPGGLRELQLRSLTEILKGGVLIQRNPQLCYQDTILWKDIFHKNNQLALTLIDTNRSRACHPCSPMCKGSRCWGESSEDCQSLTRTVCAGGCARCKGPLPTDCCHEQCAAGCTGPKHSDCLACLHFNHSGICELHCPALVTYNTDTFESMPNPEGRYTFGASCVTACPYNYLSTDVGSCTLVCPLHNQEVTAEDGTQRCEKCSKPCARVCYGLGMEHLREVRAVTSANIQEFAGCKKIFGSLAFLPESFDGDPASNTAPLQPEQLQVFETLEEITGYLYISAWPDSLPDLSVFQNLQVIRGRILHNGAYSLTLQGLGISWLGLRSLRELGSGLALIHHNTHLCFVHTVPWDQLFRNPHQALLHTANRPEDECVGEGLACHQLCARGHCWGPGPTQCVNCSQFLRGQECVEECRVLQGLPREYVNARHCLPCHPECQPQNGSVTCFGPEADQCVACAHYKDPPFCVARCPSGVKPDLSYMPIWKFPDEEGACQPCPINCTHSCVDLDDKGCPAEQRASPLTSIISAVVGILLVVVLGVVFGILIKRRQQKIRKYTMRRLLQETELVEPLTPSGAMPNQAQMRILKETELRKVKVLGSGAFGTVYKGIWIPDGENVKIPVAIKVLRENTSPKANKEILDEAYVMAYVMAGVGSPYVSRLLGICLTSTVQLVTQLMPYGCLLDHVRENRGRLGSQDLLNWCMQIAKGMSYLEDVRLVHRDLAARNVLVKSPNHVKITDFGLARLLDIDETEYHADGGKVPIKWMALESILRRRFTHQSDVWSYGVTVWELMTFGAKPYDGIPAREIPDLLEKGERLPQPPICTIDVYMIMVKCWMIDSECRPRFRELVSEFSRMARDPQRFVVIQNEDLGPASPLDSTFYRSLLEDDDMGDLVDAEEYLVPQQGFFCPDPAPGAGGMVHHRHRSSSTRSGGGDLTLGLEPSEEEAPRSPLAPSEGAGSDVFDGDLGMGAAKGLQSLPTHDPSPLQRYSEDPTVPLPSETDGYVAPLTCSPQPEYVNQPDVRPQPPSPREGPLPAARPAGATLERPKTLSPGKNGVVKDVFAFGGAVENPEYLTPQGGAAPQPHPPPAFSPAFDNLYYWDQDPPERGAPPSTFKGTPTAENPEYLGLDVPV

Row | SMILES | IC50 (HER2 YVMA) | IC50 (EGFR V3) | IC50 (EGFR wt) | IC50 (HER2 S310F)
1 | C=CC(=O)Nc1cc2c(Nc3cccc(Cl)c3F)ncnc2cc1C#C[C@]12C[C@H]1CN(C(C)C)C2 [Compound 42, N-(4-((3-chloro-2-fluorophenyl)amino)-7-(((1S,5R)-3-isopropyl-3-azabicyclo[3.1.0]hexan-1-yl)ethynyl)quinazolin-6-yl)acrylamide] | ≤ 50 nM | ≤ 50 nM | ≤ 50 nM | 
2 | CN1C[C@H]2C[C@@]2(C#Cc2cc3ncnc(Nc4cccc(Cl)c4F)c3cc2NC(=O)/C=C/CN2C3COCC2C3)C1 [Compound 20, (E)-4-(3-oxa-6-azabicyclo[3.1.1]heptan-6-yl)-N-(4-((3-chloro-2-fluorophenyl)amino)-7-(((1R,5S)-3-methyl-3-azabicyclo[3.1.0]hexan-1-yl)ethynyl)quinazolin-6-yl)but-2-enamide] |  | ≤ 50 nM | 100 to 500 nM | ≤ 50 nM
3 | C=CC(=O)Nc1cc2c(Nc3cccc(Cl)c3F)ncnc2cc1C#CC1(C)CN(C)CCO1 (stereo not shown) [Compound 32, N-(4-((3-chloro-2-fluorophenyl)amino)-7-((2,4-dimethylmorpholin-2-yl)ethynyl)quinazolin-6-yl)acrylamide] | > 500 nM | ≤ 50 nM | > 500 nM | 
4 | CN1C[C@H]2C[C@@]2(C#Cc2cc3ncnc(Nc4cccc(Cl)c4F)c3cc2NC(=O)C#CCN2CCOCC2)C1 [Compound 18, N-(4-((3-chloro-2-fluorophenyl)amino)-7-(((1R,5S)-3-methyl-3-azabicyclo[3.1.0]hexan-1-yl)ethynyl)quinazolin-6-yl)-4-morpholinobut-2-ynamide] |  | ≤ 50 nM |  | ≤ 50 nM
5 | C=CC(=O)Nc1cc2c(Nc3ccc(Cl)c(Cl)c3F)ncnc2cc1C#C[C@@]12C[C@@H]1CN(C)C2 [Compound 34] | ≤ 50 nM | ≤ 50 nM | ≤ 50 nM | 
6 | C=CC(=O)Nc1cc2c(Nc3ccc(Oc4ccn5ncnc5c4)c(C)c3)ncnc2cc1C#CC12CC1CN(C)C2 (stereo not shown) [Compound 28, N-(4-((4-([1,2,4]triazolo[1,5-a]pyridin-7-yloxy)-3-methylphenyl)amino)-7-((3-methyl-3-azabicyclo[3.1.0]hexan-1-yl)ethynyl)quinazolin-6-yl)acrylamide] | ≤ 50 nM | ≤ 50 nM | > 500 nM | 
7 | C=CC(=O)Nc1cc2c(Nc3ccc(Cl)c(Cl)c3F)ncnc2cc1C#C[C@]12C[C@H]1CN(C)C2 [Compound 33, N-(4-((3,4-dichloro-2-fluorophenyl)amino)-7-(((1S,5R)-3-methyl-3-azabicyclo[3.1.0]hexan-1-yl)ethynyl)quinazolin-6-yl)acrylamide] | ≤ 50 nM | ≤ 50 nM | ≤ 50 nM | 
8 | C=CC(=O)Nc1cc2c(Nc3cc(Cl)ccc3F)ncnc2cc1C#CC1(C)COC1 [Compound 29, N-(4-((5-chloro-2-fluorophenyl)amino)-7-((3-methyloxetan-3-yl)ethynyl)quinazolin-6-yl)acrylamide] | > 500 nM | 100 to 500 nM | 100 to 500 nM | 
9 | CN(C)C/C=C/C(=O)Nc1cc2c(Nc3cccc(Cl)c3F)ncnc2cc1C#CC1(C)CCOC1 (stereo not shown) [Compound 44, (E)-N-(4-((3-chloro-2-fluorophenyl)amino)-7-((3-methyltetrahydrofuran-3-yl)ethynyl)quinazolin-6-yl)-4-(dimethylamino)but-2-enamide] | ≤ 50 nM | ≤ 50 nM | ≤ 50 nM | 
10 | C=CC(=O)Nc1cc2c(Nc3cccc(Cl)c3F)ncnc2cc1C#CC1(C)COC1 [Compound 30, N-(4-((3-chloro-2-fluorophenyl)amino)-7-((3-methyloxetan-3-yl)ethynyl)quinazolin-6-yl)acrylamide] | 50 to 100 nM | ≤ 50 nM | 50 to 100 nM | 
11 | CC#CC(=O)Nc1cc2c(Nc3cccc(Cl)c3F)ncnc2cc1C#C[C@@]12C[C@@H]1CN(C)C2 [Compound 38, N-(4-((3-chloro-2-fluorophenyl)amino)-7-(((1R,5S)-3-methyl-3-azabicyclo[3.1.0]hexan-1-yl)ethynyl)quinazolin-6-yl)but-2-ynamide] | 100 to 500 nM | ≤ 50 nM | 50 to 100 nM | 
12 | C=CC(=O)Nc1cc2c(Nc3ccc(Oc4ccccc4)cc3)ncnc2cc1C#C[C@@]12C[C@@H]1CN(C)C2 [Compound 40, N-(7-(((1R,5S)-3-methyl-3-azabicyclo[3.1.0]hexan-1-yl)ethynyl)-4-((4-phenoxyphenyl)amino)quinazolin-6-yl)acrylamide] | 100 to 500 nM | ≤ 50 nM | 100 to 500 nM | 

The next lines start with the values.

Row | IC50 (HER2 YVMA) | IC50 (EGFR V3) | IC50 (EGFR wt) | IC50 (HER2 S310F) | SMILES
13 | 100 to 500 nM | 50 to 100 nM | ≤ 50 nM |  | C=C(CO)C(=O)Nc1cc2c(Nc3cccc(Cl)c3F)ncnc2cc1C#C[C@@]1(C)CCN(C)C1 [Compound 31, (R)—N-(4-((3-chloro-2-fluorophenyl)amino)-7-((1,3-dimethylpyrrolidin-3-yl)ethynyl)quinazolin-6-yl)-2-(hydroxymethyl)acrylamide]
14 |  | 50 to 100 nM | > 500 nM | 100 to 500 nM | CN(C)C/C=C/C(=O)Nc1cc2c(Nc3cccc(Cl)c3F)ncnc2cc1C#C[C@@]1(C)CCN(C)C1 [Compound 24, (R,E)-N-(4-((3-chloro-2-fluorophenyl)amino)-7-((1,3-dimethylpyrrolidin-3-yl)ethynyl)quinazolin-6-yl)-4-(dimethylamino)but-2-enamide]
15 |  | > 500 nM |  | > 500 nM | CCC(=O)Nc1cc2c(Nc3cccc(Cl)c3F)ncnc2cc1C#C[C@@]1(C)CCN(C)C1 [Compound 22, (R)—N-(4-((3-chloro-2-fluorophenyl)amino)-7-((1,3-dimethylpyrrolidin-3-yl)ethynyl)quinazolin-6-yl)propionamide]
16 | > 500 nM | > 500 nM | 50 to 100 nM |  | CC(C)/C=C/C(=O)Nc1cc2c(Nc3cccc(Cl)c3F)ncnc2cc1C#C[C@@]1(C)CCN(C)C1 [Compound 39, (E)-N-[4-(3-chloro-2-fluoro-anilino)-7-[2-[(3R)-1,3-dimethylpyrrolidin-3-yl]ethynyl]quinazolin-6-yl]-4-methyl-pent-2-enamide]
17 | ≤ 50 nM | ≤ 50 nM | ≤ 50 nM |  | C=CC(=O)Nc1cc2c(Nc3cccc(Cl)c3F)ncnc2cc1C#C[C@]1(OC)CCN(C)C1 [Compound 36, (R)—N-(4-((3-chloro-2-fluorophenyl)amino)-7-((3-methoxy-1-methylpyrrolidin-3-yl)ethynyl)quinazolin-6-yl)acrylamide]
18 | > 500 nM | > 500 nM | 100 to 500 nM |  | C/C=C/C(=O)Nc1cc2c(Nc3cccc(Cl)c3F)ncnc2cc1C#C[C@@]1(C)CCN(C)C1 [Compound 27, (R,E)-N-(4-((3-chloro-2-fluorophenyl)amino)-7-((1,3-dimethylpyrrolidin-3-yl)ethynyl)quinazolin-6-yl)but-2-enamide]
19 | ≤ 50 nM | ≤ 50 nM | ≤ 50 nM |  | C=CC(=O)Nc1cc2c(Nc3cccc(Cl)c3F)ncnc2cc1C#C[C@@]1(OC)CCN(C)C1 [Compound 35, (S)—N-(4-((3-chloro-2-fluorophenyl)amino)-7-((3-methoxy-1-methylpyrrolidin-3-yl)ethynyl)quinazolin-6-yl)acrylamide]
20 | > 500 nM | > 500 nM | > 500 nM |  | CN1CC[C@](C)(C#Cc2cc3ncnc(Nc4cccc(Cl)c4F)c3cc2NC(=O)CC#N)C1 [Compound No. 84, (R)—N-(4-((3-chloro-2-fluorophenyl)amino)-7-((1,3-dimethylpyrrolidin-3-yl)ethynyl)quinazolin-6-yl)-2-cyanoacetamide]
21 | > 500 nM | > 500 nM | ≤ 50 nM |  | COC(=O)Nc1cc2c(Nc3cccc(Cl)c3F)ncnc2cc1C#CC1(C)CCN(C)C1 (stereo not shown) [Compound 43, Methyl (4-((3-chloro-2-fluorophenyl)amino)-7-((1,3-dimethylpyrrolidin-3-yl)ethynyl)quinazolin-6-yl)carbamate]
